Experimental findings from patent US20240400547A1, “2,6-PIPERIDINEDIONE COMPOUND AND APPLICATION THEREOF” (MEDSHINE DISCOVERY INC., priority 2021, published 2024) are described below.

The target of one assay is T1, IRAK4 (Homo sapiens, UniProt Q9NWZ3).
T1 construct: expressed in transfected cells; host or cells: K562 IRAK4-HiBiT cells
T1 sequence (Q9NWZ3 1-460): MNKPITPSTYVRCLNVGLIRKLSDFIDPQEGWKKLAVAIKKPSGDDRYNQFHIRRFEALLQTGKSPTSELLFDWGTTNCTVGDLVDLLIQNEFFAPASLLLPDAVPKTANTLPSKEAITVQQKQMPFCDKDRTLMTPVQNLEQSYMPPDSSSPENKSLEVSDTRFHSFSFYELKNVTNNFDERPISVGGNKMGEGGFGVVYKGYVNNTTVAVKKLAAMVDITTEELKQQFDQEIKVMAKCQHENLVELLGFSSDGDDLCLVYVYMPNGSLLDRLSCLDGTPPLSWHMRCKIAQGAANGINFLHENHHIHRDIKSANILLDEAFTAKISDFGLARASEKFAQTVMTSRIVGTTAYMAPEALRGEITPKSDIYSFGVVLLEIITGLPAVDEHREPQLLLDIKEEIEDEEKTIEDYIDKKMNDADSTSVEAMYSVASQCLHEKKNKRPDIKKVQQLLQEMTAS
Description: Target protein degradation in K562 IRAK4-HiBiT cells (Nano-Glo HiBiT). The settings on record: 16 to 18 hours; for Dmax: read-out: Maximum degradation rate. It counts as cell-based. Here is the method:
Experimental objective: The experiment aims to evaluate the degradation effect of the test compounds on the target protein IRAK4 in K562 IRAK4-HiBiT cells.
• Cells: K562 IRAK4-HiBiT cells • Culture medium: RPMI 1640+10% fetal bovine serum+2 mM glutamine+1 mM sodium pyruvate+penicillin/streptomycin. • Positive control: 1000 nM; negative control: 0.1% DMSO.
• (1). The powder of the compound to be tested was dissolved in DMSO to a storage concentration of 10 mM. A total of 9 μL of the 10 mM of the compound to be tested was manually pipetted into the 1st and 13th columns of the LDV plate using a pipettor; • (2). A volume of 6 μL of DMSO was added to columns 2-12 and 14-24 using a Multidrop Combi; • (3). A 3-fold dilution of the test compounds (3 μL+6 μL) was performed using Bravo, for columns 1-11 and 13-23; • (4). According to the plate layout, 25 nL of compound solution (columns 1-24 of the LDV plate) was transferred to the experimental plate using Echo; • (5) 25 nL of the 1 mM positive control solution was transferred to the assay plate as a 100% degradation control (i.e. LC, HPE), and 25 nL of DMSO was transferred to the assay plate as a 0% control (i.e. HC, ZPE).
• (1) The culture medium was discarded, and the cells were washed once with DPBS, digested with trypsin, counted, and prepared into a cell suspension of […]. • (2) Using the MultiDrop Combi at a medium speed, 25 μL/well of the cell suspension was added to the experimental plate containing the test compounds; • (3) The experimental plate containing cells was returned to the incubator and cultured for 16 to 18 hours at 37° C. and 5% CO2.
• (1). Using the MultiDrop Combi at a high speed, 25 μL/well of the assay reagent (NanoGlo lytic solution+substrate+LgBit protein) was added to the assay plate, followed by shaking for 10 minutes; • (2) The plate was centrifuged at 2000 rpm for 1 minute to remove any bubbles; • (3) Readings were obtained by using an Envision, US Luminescence reader.
To calculate the degradation rate (DR) of the test compounds, the following formula is used: IR (%)=(RLU vehicle control−RLU compound)/(RLU vehicle control−RLU positive control)×100%. The solvent control refers to the blank control. The degradation rates of compounds at different concentrations were calculated in Excel, and then XLFit software was used to plot inhibition curves and calculate relevant parameters, including minimum degradation rate, maximum degradation rate, and DC50.

The next assay addresses T2, IKZF1 (Homo sapiens, UniProt Q13422+Q96SW2).
T2 construct: host or cells: MM.1S cells
Description: In Cell Western of IKZF1 protein expression level in MM.1S cells. The assay is classed as cell-based. The settings on record: IKZF1, MM.1S cells, 24 hours; for Dmax: MM1.S, read-out: Maximum degradation rate Dmax. Here is the method: Experimental objective: The experiment aims to assess the degradation effect of the test compounds on IKZF1 and 1KZF3 proteins in MM.1S cells by evaluating the impact of the test compounds on the expression levels of IKZF1 and IZKZF3 proteins in MM.1S cells.
• Cell lines: MMN.1 S cell (sourced from ATCC; Cat. No CRL-2974) • Negative control: 0.100 DMSO.
• 1) Log phase MM.1 S cells were plated in a 96-well plate at 1.2×10^5 cells per well and cultured overnight; • 2) The next day, compounds were added with a starting concentration of 300 nM, diluted threefold across three replicate wells for 10 concentration gradients (including DMSO), and the cells were incubated for 24 hours in an incubator; • 3) The cells were centrifuged, and the supernatant was carefully removed. 150 μL of 4% paraformaldehyde fixative was added along the wall of the wells, avoiding contact with the bottom cells, and the cells were incubated at room temperature for 20 minutes; • 4) Lysis buffer was prepared by mixing 0.5 mL of 10% Triton X-100 with 49.5 mL of PBS until homogenous; • 5) 200 μL of lysis buffer was added along the well walls, again avoiding the bottom cells, and incubated on a shaker at room temperature for 5 minutes; • 6) The wells were washed four times; • 7) 150 μL of Licor […] Blocking Buffer was added along the well walls, avoiding the bottom cells, and the cells were incubated on a shaker at room temperature for 1.5 hours; • 8) Ikaros (D6N9Y) Rabbit mAb, Aiolos (D1C1E) Rabbit mAb and GAPDH mouse mAb (proteintech, 60004-1-Ig) were diluted at a 1:100 ratio using antibody dilution buffer; • 9) 50 μL of mixed antibody was added to each well with three replicate wells, and the cells were incubated overnight on a shaker at 4° C.; • 10) PBST (PBS with 0.1% Tween 20) was prepared; • 11) The primary antibodies were removed, and 200 μL of PBST was added along the well walls, avoiding the bottom cells, and the cells were incubated on a shaker at room temperature for 5 minutes; • 12) The wells were washed four times; • 13) Secondary antibody dilution buffer was prepared by adding Tween 20 to Licor […] Blocking Buffer to a final concentration of 0.2%; • 14) Fluorescent secondary antibodies were diluted in the dark at a 1:800 ratio. To 400 μL of secondary antibody dilution solution, 0.5 μL of each IRDye 800CW and IRDye 680CW (corresponding to the primary antibodies) was added. • 15) 50 μL of the diluted fluorescent secondary antibodies was added to each well and the cells were incubated on a shaker at room temperature in the dark for 60 minutes; • 16) The secondary antibodies were removed, and 200 μL of PBST was added along the well walls, avoiding the bottom cells, and the cells were incubated on a shaker at room temperature in the dark for 5 minutes; • 17) The wells were washed four times; immediately after washing, the Odyssey Gel Imaging System was used for detection at dual wavelengths of 700 nm and 800 nm.
Using GraphPad Prism 6 software, inhibition rate data was entered to fit the curve and calculate the DC50 value.

Structures can show the parent of a compound that is named as a salt.

T2 sequence (Q13422 whole entry): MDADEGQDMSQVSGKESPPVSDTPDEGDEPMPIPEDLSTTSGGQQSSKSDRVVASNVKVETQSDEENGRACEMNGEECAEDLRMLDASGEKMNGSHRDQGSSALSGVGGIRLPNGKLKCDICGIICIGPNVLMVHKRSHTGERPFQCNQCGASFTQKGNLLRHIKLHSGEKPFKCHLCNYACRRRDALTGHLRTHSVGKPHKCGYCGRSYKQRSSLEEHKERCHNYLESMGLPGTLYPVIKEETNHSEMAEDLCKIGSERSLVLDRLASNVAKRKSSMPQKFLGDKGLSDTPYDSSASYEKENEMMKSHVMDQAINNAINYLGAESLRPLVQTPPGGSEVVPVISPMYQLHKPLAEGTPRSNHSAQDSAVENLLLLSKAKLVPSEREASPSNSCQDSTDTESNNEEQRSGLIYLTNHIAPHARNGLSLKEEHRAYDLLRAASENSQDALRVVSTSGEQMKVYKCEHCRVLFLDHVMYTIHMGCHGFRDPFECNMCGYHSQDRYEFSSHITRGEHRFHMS
T2 sequence (Q96SW2 whole entry): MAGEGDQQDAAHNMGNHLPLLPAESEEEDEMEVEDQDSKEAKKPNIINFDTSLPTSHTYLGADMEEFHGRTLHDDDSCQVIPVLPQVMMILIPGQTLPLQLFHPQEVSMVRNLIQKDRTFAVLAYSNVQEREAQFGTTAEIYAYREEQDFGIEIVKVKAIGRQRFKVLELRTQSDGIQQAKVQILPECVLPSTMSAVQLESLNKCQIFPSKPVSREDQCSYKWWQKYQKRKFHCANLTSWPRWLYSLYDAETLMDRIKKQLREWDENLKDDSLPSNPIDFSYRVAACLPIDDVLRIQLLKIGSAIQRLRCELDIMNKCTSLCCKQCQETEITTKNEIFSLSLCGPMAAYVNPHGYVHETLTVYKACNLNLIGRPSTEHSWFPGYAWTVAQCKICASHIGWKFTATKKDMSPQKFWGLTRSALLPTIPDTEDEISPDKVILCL
T2 sequence (Q16531 whole entry partner): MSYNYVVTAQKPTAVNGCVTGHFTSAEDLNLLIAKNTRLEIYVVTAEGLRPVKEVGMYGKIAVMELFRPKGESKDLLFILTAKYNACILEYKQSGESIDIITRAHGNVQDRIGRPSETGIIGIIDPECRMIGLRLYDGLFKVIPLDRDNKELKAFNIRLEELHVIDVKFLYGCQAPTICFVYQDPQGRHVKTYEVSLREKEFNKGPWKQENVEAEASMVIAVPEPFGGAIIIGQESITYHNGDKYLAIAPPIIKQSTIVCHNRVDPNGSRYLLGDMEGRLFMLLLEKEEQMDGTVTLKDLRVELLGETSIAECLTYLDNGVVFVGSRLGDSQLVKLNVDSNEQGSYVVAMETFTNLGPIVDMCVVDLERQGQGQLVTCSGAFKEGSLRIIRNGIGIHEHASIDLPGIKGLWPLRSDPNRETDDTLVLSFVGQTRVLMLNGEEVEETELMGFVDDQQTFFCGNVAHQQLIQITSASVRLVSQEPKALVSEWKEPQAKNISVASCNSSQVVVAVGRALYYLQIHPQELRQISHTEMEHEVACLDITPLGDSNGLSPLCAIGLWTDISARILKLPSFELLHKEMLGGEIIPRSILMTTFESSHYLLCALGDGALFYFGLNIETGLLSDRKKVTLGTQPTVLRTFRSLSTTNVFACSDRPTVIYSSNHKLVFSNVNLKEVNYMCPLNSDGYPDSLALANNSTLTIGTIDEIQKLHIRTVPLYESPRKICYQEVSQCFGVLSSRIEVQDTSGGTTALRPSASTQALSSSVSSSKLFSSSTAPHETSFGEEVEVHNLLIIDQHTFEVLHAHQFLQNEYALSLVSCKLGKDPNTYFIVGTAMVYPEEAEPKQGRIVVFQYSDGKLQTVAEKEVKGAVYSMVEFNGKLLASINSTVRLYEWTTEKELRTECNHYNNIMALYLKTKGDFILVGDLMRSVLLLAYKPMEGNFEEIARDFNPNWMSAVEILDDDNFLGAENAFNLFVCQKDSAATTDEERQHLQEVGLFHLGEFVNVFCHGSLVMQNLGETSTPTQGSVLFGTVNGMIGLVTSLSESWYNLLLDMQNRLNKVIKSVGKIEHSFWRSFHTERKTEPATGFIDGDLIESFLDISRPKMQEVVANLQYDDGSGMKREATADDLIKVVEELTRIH

Take `CC(C)(O)c1cc2nc(C3CCC(CN4CCN(CC(=O)Nc5cccc6c5ccc5onc(C7CCC(=O)NC7=O)c56)CC4)CC3)sc2cc1NC(=O)c1cccc(C(F)(F)F)n1` (stereo not drawn) [Formate of WX017]: at IRAK4, the DC50 is 4 nM and the Dmax was found to be 73.9%. Besides, on IKZF1, the DC50 came to 15.7 nM and the Dmax was 62.9%.
With `O=C1CCC(c2coc3cc(NC(=O)CN4CCN(C[C@H]5CC[C@H](N6CC(NC(=O)c7coc(-c8ccnc(NCC9CC9)c8)n7)C(C(F)F)N6)CC5)CC4)ccc23)C(=O)N1` (stereo partly drawn) [Hydrochloride of WX002], on IRAK4, the DC50 came to 13.5 nM and the Dmax was determined as 100%.
As for `O=C1CCC(c2noc3cc(NC(=O)CN4CCN(C[C@H]5CC[C@H](n6cc(NC(=O)c7coc(-c8ccnc(NCC9CC9)c8)n7)c(C(F)F)n6)CC5)CC4)ccc23)C(=O)N1` (stereo partly drawn) [Hydrochloride of WX025], on IRAK4, the DC50 came out at 2.53 nM and the Dmax came to 105%. Besides, on IKZF1, the DC50 is 14.4 nM and the Dmax was 72.2%.
For `CC(C)(O)c1cc2nc([C@H]3CC[C@H](CN4CCN(CC(=O)Nc5ccc6c(ccc7onc(C8CCC(=O)NC8=O)c76)c5)CC4)CC3)sc2cc1NC(=O)c1cccc(C(F)(F)F)n1` (stereo partly drawn) [Formate of WX020], in that order: 29.9 nM, 75.1%, 3.77 nM and 85.2%.
Turning to `O=C1CCC(c2noc3c(NC(=O)CN4CCN(C[C@H]5CC[C@H](n6cc(NC(=O)c7coc(-c8ccnc(NCC9CC9)c8)n7)c(C(F)F)n6)CC5)CC4)cccc23)C(=O)N1` (stereo partly drawn) [Hydrochloride of WX028], at IRAK4, the DC50 was 2.11 nM. For the same compound, at IKZF1, the DC50 was 26.7 nM and the Dmax amounted to 49.7%.
Turning to `O=C1CCC(c2coc3ccc4c(NC(=O)CN5CCN(C[C@H]6CC[C@H](n7cc(NC(=O)c8coc(-c9ccnc(NCC%10CC%10)c9)n8)c(C(F)F)n7)CC6)CC5)cccc4c23)C(=O)N1` (stereo partly drawn) [Trifluoroacetate of WX011], at IRAK4, the DC50 was 9.6 nM and the Dmax was determined as 105%.
Take `CC(C)(O)c1cc2nc([C@H]3CC[C@H](CN4CCN(CC(=O)Nc5ccc6c(C7CCC(=O)NC7=O)noc6c5)CC4)CC3)sc2cc1NC(=O)c1cccc(C(F)(F)F)n1` (stereo partly drawn) [Formate of WX026]: the values for the DC50 at IRAK4 and at IKZF1 were 0.78 nM and 5.64 nM, respectively. Also, the Dmax at IRAK4 came out at 80.3%; at IKZF1, 84.4%.
As for `O=C1CCC(c2noc3ccc4c(NC(=O)C(F)(F)C5CCN(CC6CCC(n7cc(NC(=O)c8coc(-c9ccnc(NCC%10CC%10)c9)n8)c(C(F)F)n7)CC6)CC5)cccc4c23)C(=O)N1` (stereo not drawn) [Hydrochloride of WX018], on IRAK4, the DC50 came out at 7.91 nM and the Dmax was 119%. For the same compound, at IKZF1, the DC50 turned out to be 14.5 nM and the Dmax was 88.8%.
